Assays:
[1] = Antioxidant activity assessed as DPPH radical scavenging activity; format: functional
[2] = Antioxidant activity assessed as nitric oxide radical scavenging activity; format: functional

| SMILES | IC50 [1] | IC50 [2] |
| --- | --- | --- |
| Fc1ccc2c(c1)CCC(c1nnc(-c3cn(Cc4c(F)cccc4F)nn3)o1)O2 (stereo unspecified) | 23.1 µM | 88 µM |
| Fc1ccc2c(c1)CCC(c1nnc(C3CCc4cc(F)ccc4O3)o1)O2 (stereo unspecified) | 29 µM | 87 µM |
| Nc1ccc(-c2nnc(C3CCc4cc(F)ccc4O3)o2)cc1 (stereo unspecified) | 34.9 µM | 89.1 µM |
| Fc1ccc2c(c1)CCC(c1nnc(-c3ccccc3Cl)o1)O2 (stereo unspecified) | 40.8 µM | 88 µM |
| O=c1cc(-c2nnc(C3CCc4cc(F)ccc4O3)o2)oc2ccc(F)cc12 (stereo unspecified) | 34.9 µM | 73.9 µM |
| O=[N+]([O-])c1ccc(-c2nnc(C3CCc4cc(F)ccc4O3)o2)cc1 (stereo unspecified) | 28.7 µM | 84.8 µM |
| Fc1ccc2c(c1)CCC(c1nnc(-c3ccccc3)o1)O2 (stereo unspecified) | 28.7 µM | 85.9 µM |
| O=C1O[C@H]([C@@H](O)CO)C(O)=C1O [ASCORBIC ACID] | 44.2 µM | 42.6 µM |
| COc1cc(-c2nnc(C3CCc4cc(F)ccc4O3)o2)cc(OC)c1OC (stereo unspecified) | 43.2 µM | 87 µM |
| Fc1ccc2c(c1)CCC(c1nnc(-c3cc(F)c(F)c(F)c3F)o1)O2 (stereo unspecified) | 29 µM | 85.9 µM |
| Fc1ccc2c(c1)CCC(c1nnc(-c3cccc(Cl)c3)o1)O2 (stereo unspecified) | 23.1 µM | 84.8 µM |
| Fc1ccc2c(c1)CCC(c1nnc(-c3cnccn3)o1)O2 (stereo unspecified) | 73.4 µM | 87 µM |
| Fc1ccc2c(c1)CCC(c1nnc(-c3ccc(Cl)cc3)o1)O2 (stereo unspecified) | 17.2 µM | 85.9 µM |

Source: ChEMBL document CHEMBL4627369, “Synthesis of novel of 2, 5-disubstituted 1, 3, 4- oxadiazole derivatives and their in vitro anti-inflammatory, anti-oxidant evaluation, and molecular docking study” (Bioorg Med Chem Lett, 2020)
